Data: patent publication US8865744B1, “(Cyano-dimethyl-methyl)-isoxazoles and -[1,3,4]thiadiazoles” (Boehringer Ingelheim International GmbH, priority 2013, dated 2014)
Read-outs that look alike come from different tables or passages of the source.

How the values were obtained:
human CB2R = target: T1, human CB2R (Homo sapiens, UniProt P34972); test: CB2 cAMP (Assay 1): In vitro testing of CB2 potency; format: cell-based
T1 construct: host or cells: CHO cells

human CB1R = target: T2, human CB1R (Homo sapiens, UniProt P21554); test: CB1 cAMP (Assay 2): In vitro testing of CB1 potency; format: cell-based
T2 construct: host or cells: CHO cells
T2 sequence (P21554 whole entry): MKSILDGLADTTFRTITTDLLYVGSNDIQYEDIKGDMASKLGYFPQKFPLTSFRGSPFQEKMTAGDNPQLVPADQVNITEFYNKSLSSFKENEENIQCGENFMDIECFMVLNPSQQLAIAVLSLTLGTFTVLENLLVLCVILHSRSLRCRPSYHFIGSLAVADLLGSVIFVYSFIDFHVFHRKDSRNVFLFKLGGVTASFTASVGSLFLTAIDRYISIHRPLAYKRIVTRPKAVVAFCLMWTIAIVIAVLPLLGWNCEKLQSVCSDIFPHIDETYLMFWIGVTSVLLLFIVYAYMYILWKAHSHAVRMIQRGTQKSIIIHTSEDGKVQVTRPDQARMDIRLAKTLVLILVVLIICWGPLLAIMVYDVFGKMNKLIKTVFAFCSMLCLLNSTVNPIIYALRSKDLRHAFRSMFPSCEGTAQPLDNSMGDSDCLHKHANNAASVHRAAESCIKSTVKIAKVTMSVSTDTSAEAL

T1 sequence (P34972 whole entry): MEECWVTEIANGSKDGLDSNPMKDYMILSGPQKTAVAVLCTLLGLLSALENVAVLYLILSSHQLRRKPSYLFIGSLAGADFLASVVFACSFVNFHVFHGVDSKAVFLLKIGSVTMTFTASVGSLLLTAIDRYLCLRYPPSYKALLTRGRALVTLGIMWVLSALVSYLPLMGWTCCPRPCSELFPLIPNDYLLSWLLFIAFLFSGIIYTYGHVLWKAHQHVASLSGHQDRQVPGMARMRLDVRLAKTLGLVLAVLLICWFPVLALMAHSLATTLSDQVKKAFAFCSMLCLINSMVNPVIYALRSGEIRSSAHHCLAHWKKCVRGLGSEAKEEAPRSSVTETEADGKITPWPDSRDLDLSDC

| Structure (SMILES) | EC50 (human CB2R; read-out: CB2 EC50) [nM] | EC50 (human CB1R) [nM] | EC50 (human CB2R) [nM] | EC50 (human CB1R; read-out: CB1 EC50) [nM] |
| --- | --- | --- | --- | --- |
| CC(C)(CO)c1cc(NC(=O)C(C)(C)S(=O)(=O)CC2CCOCC2)on1 [Example 1 in WO2010036630] | 88 | – | – | – |
| CC(C)(C#N)c1cc(NC(=O)C(C)(C)S(=O)(=O)CCCC(F)(F)F)on1 [Example 1, N-[3-(Cyano-dimethyl-methyl)-isoxazol-5-yl]-2-methyl-2-(4,4,4-trifluoro-butane-1-sulfonyl)-propionamide] | – | 104000 | 18 | – |
| CC(C)(CO)c1cc(NC(=O)C(C)(C)S(=O)(=O)C2CCOCC2)on1 [Example 2 in WO2010036630] | – | 150000 | – | – |
| CC(C)(C#N)c1cc(NC(=O)C(C)(C)S(=O)(=O)CC2CCOCC2)on1 [Example 2, N-[3-(Cyano-dimethyl-methyl)-isoxazol-5-yl]-2-methyl-2-(tetrahydro-pyran-4-ylmethanesulfonyl)-propionamide] | – | > 200000 | 104 | – |
| CC(C)(C#N)c1cc(NC(=O)C(C)(C)S(=O)(=O)C2CCOCC2)on1 [Example 3] | 8 | – | – | > 200000 |
| CN(CC1CCOCC1)C(C)(C)C(=O)Nc1cc(C(C)(C)C#N)no1 [Example 4] | 0.36 | – | – | 39400 |
| CN(C1CCN(S(C)(=O)=O)CC1)C(C)(C)C(=O)Nc1cc(C(C)(C)C#N)no1 [Example 5] | 0.23 | – | – | 2500 |
| CN(CC1CCOCC1)C(C)(C)C(=O)Nc1cc(C(C)(C)CO)no1 [Example 7 in WO2010147792] | 0.68 | – | – | 8080 |
| CN(CC1CCOCC1)C(C)(C)C(=O)Nc1nnc(C(C)(C)C#N)s1 [Example 7, N-[5-(Cyano-dimethyl-methyl)-[1,3,4]thiadiazol-2-yl]-2-methyl-2-[methyl(tetrahydro-pyran-4-ylmethyl)-amino]-propionamide] | – | > 200000 | 25 | – |
| CN(C1CCN(S(C)(=O)=O)CC1)C(C)(C)C(=O)Nc1nnc(C(C)(C)C#N)s1 [Example 8] | – | 69000 | 4.3 | – |
| COCC(C)(C)c1cc(NC(=O)C(C)(C)S(=O)(=O)CC2CCOCC2)on1 [Example 17 in WO2010036630] | – | 8600 | 30 | – |
| CN(CC1CCOCC1)C(C)(C)C(=O)Nc1nnc(C(C)(C)CO)s1 [Example 30 in WO2010147792] | 5.4 | – | – | 120000 |
| COCC(C)(C)c1cc(NC(=O)C(C)(C)N(C)CC2CCOCC2)on1 [Example 46 in WO2010147792] | 0.27 | – | – | 923 |
| CN(C1CCN(S(C)(=O)=O)CC1)C(C)(C)C(=O)Nc1cc(C(C)(C)CO)no1 [Example 47 in WO2010147792] | 0.85 | – | – | 3100 |
| CC(C)(O)c1cc(NC(=O)C(C)(C)S(=O)(=O)C2CCOCC2)on1 [Example 133 WO2010036630] | – | > 200000 | 140 | – |
